US20150105252A1, “SUBSTITUTED PYRAZOLES AS HERBICIDES” (E I DU PONT DE NEMOURS AND COMPANY, priority 2013, published 2015)

What was measured:
[1] = tested on: pigweed; assay: Test C postemergence; assay type: in vivo, Amaranthus retroflexus; conditions: for Pigweed plant response rating: scale 0 to 100
Text: (§1) Seeds of plant species selected from blackgrass (Alopecurus myosuroides), ryegrass, Italian (Italian ryegrass, Lolium multiflorum), wheat (winter wheat, Triticum aestivum), galium (catchweed bedstraw, Galium aparine), corn (Zea mays), crabgrass, large (large crabgrass, Digitaria sanguinalis), foxtail, giant (giant foxtail, Setaria faberii), johnsongrass (Sorghum halepense), lambsquarters (Chenopodium album), morningglory (Ipomoea coccinea), nutsedge, yellow (yellow nutsedge, Cyperus esculentus), pigweed (redroot pigweed, Amaranthus retroflexus), ragweed (common ragweed, Ambrosia elation), soybean (Glycine max), barnyardgrass (Echinochloa crus-galli), oilseed rape (Brassica napus), waterhemp (common waterhemp, Amaranthus rudis), oat, wild (wild oat, Avena fatua), kochia (Kochia scoparia), Surinam grass (Brachiaria decumbens), foxtail, green (green foxtail, Setaria viridis), goosegrass (Eleusine indica), bromegrass, downy (downy bromegrass, Bromus tectorum), nightshade (eastern black nightshade, Solanum ptycanthum), cocklebur (common cocklebur, Xanthium strumarium), cupgrass, woolly (woolly cupgrass, Eriochloa villosa), bermudagrass (Cynodon dactylon), sunflower, (common oilseed sunflower, Helianthus annuus), Russian thistle (Salsola kali), and velvetleaf (Abutilon theophrasti) were planted into a blend of loam soil and sand and treated preemergence with test chemicals formulated in a non-phytotoxic solvent mixture which included a surfactant.
(§2) At the same time, plants selected from these crop and weed species and also chickweed (common chickweed, Stellaria media), canarygrass (littleseed canarygrass, Phalaris minor), and deadnettle (henbit deadnettle, Lamium amplexicaule), were planted in pots containing Redi-Earth® planting medium (Scotts Company, 14111 Scottslawn Road, Marysville, Ohio 43041) comprising spaghnum peat moss, vermiculite, wetting agent and starter nutrients and treated with postemergence applications of test chemicals formulated in the same manner. Plants ranged in height from 2 to 18 cm (1- to 4-leaf stage) for postemergence treatments. Treated plants and controls were maintained in a greenhouse for 13 to 15 days, after which time all species were compared to controls and visually evaluated. Plant response ratings, summarized in Table C, are based on a scale of 0 to 100 where 0 is no effect and 100 is complete control. A dash (-) response means no test result.

[2] = tested on: blackgrass; assay: Test C postemergence; assay type: in vivo, Alopecurus myosuroides; conditions: for Blackgrass plant response rating: scale 0 to 100
In short: (§3)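 Postemergence values come from plants sprayed at the 1- to 4-leaf stage (2–18 cm) in peat moss–vermiculite medium; preemergence values from seeds treated in a loam–sand blend. Both evaluated visually against controls after 13–15 greenhouse days, scale 0–100.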

[3] = tested on: ryegrass, Italian; assay: Test C preemergence; assay type: in vivo, Lolium multiflorum
In short: as §3

[4] = tested on: pigweed; assay: Test C preemergence; assay type: in vivo, Amaranthus retroflexus; conditions: for Plant response rating (scale of 0 to 100), Pigweed: Preemergence, 250 g ai/ha; for Pigweed plant response rating / Plant response rating, Pigweed: preemergence; for Plant response rating, Pigweed: 62 g ai/ha, scale 0 to 100, 0 = no effect, 100 = complete control
In short: as §3

[5] = tested on: corn; assay: Test A preemergence; assay type: in vivo, Zea mays; conditions: 0 to 100 scale
In short: (§4)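 After sowing in a sand–loam mix, pots received compound preemergence by directed soil spray, or postemergence once plants reached the one- to two-leaf stage (2–10 cm). Formulation contained surfactant in a non-phytotoxic solvent. Injury was scored visually after ~10 greenhouse days, 0–100 scale.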

[6] = tested on: morningglory; assay: Test C preemergence; assay type: in vivo, Ipomoea coccinea
In short: as §3

[7] = tested on: wheat; assay: Test A preemergence; assay type: in vivo, Triticum aestivum; conditions: preemergence
In short: as §4

[8] = tested on: johnsongrass; assay: Test C preemergence; assay type: in vivo, Sorghum halepense; conditions: for Plant response rating (scale of 0 to 100), Johnsongrass: Preemergence, 250 g ai/ha; for Johnsongrass plant response rating / Plant response rating, Johnsongrass: preemergence; for Plant response rating, Johnsongrass: 62 g ai/ha, scale 0 to 100, 0 = no effect, 100 = complete control
In short: as §3

[9] = tested on: morningglory; assay: Test A preemergence; assay type: in vivo, Ipomoea spp.; conditions: 0 to 100 scale
In short: as §4

[10] = tested on: blackgrass; assay: Test C preemergence; assay type: in vivo, Alopecurus myosuroides
In short: as §3

[11] = tested on: morningglory; assay: Test C postemergence; assay type: in vivo, Ipomoea coccinea; conditions: for Morningglory plant response rating: scale 0 to 100
Text: as §1, §2

[12] = tested on: ragweed; assay: Test C postemergence; assay type: in vivo, Ambrosia elation
Text: as §1, §2

[13] = tested on: barnyardgrass; assay: Test C preemergence; assay type: in vivo, Echinochloa crus-galli
In short: as §3

[14] = postemergence, 250 g ai/ha, scale 0 to 100 (0 no effect, 100 complete control)
[15] = postemergence, 62 g ai/ha, scale 0 to 100, 0 no effect, 100 complete control
[16] = postemergence, 125 g ai/ha, scale 0 to 100, 0 no effect, 100 complete control
[17] = preemergence, 31 g ai/ha, scale 0 to 100 (0 no effect, 100 complete control), 13 to 15 days
[18] = preemergence, 62 g ai/ha, 13 to 15 days, scale 0 to 100, 0 = no effect, 100 = complete control
[19] = preemergence, 125 g ai/ha, scale 0 to 100, 0 is no effect, 100 is complete control
[20] = 31 g ai/ha, scale 0 to 100 (0 no effect, 100 complete control), 13 to 15 days
[21] = 125 g ai/ha, scale 0 to 100, 0 is no effect, 100 is complete control
[22] = Preemergence, 500 g ai/ha, 0 no effect, 100 complete control
[23] = preemergence, 125 g ai/ha, visual injury, approx. 10 days
[24] = 125 g ai/ha, visual injury, 0 to 100 scale, approx. 10 days
[25] = 500 g ai/ha, visual injury after approx. 10 days, 0 to 100 scale (0 no effect, 100 complete control)
[26] = Postemergence, 31 g ai/ha, visually evaluated after 13 to 15 days

Compound | Plant response rating, Pigweed [1, 14] | Plant response rating, Pigweed [1, 16] | Plant response rating, Blackgrass [2, 14] | Plant response rating (scale of 0 to 100), Pigweed [4] | Pigweed plant response rating [4, 20] | Plant response rating, Pigweed ([4]; 13 to 15 days) | Pigweed plant response rating [4, 21] | Corn plant response rating [5, 22] | Corn plant response rating [5, 23] | Wheat plant response rating [7, 24] | Wheat plant response rating [7, 25] | Plant response rating (scale of 0 to 100), Johnsongrass [8] | Johnsongrass plant response rating [8, 20] | Plant response rating, Johnsongrass ([8]; 13 to 15 days) | Johnsongrass plant response rating [8, 21] | Morningglory plant response rating [9, 22] | Morningglory plant response rating [9, 23] | Plant response rating, Morningglory [11, 14] | Plant response rating, Morningglory [11, 16] | Plant response rating, Ragweed [12, 14] | further results
CCc1cc(C(=O)NOC(C)C)nn1Cc1cccc(OC(F)(F)F)c1 [Compound 70] | 75 | 70 | 25 | 100 | 100 | 100 | 100 | 80 | 50 | 50 | 30 | 95 | 20 | 65 | 80 | 100 | 80 | 85 | 75 | 65 | Pigweed plant response rating ([1]; Postemergence, 31 g ai/ha): 60; Plant response rating, Pigweed [1, 15]: 65; Blackgrass plant response rating ([2]; Postemergence, 31 g ai/ha): 0; Plant response rating, Blackgrass [2, 15]: 5; Plant response rating (scale of 0 to 100), Ryegrass, Italian ([3]; Preemergence, 250 g ai/ha): 80; Ryegrass, Italian plant response rating [3, 17]: 20; Plant response rating, Ryegrass, Italian [3, 18]: 30; Ryegrass, Italian plant response rating [3, 19]: 60; Plant response rating (scale of 0 to 100), Morningglory ([6]; Preemergence, 250 g ai/ha): 95; Morningglory plant response rating [6, 17]: 0; Plant response rating, Morningglory [6, 18]: 25; Morningglory plant response rating [6, 19]: 75; Plant response rating (scale of 0 to 100), Blackgrass ([10]; Preemergence, 250 g ai/ha): 85; Blackgrass plant response rating [10, 17]: 65; Plant response rating, Blackgrass [10, 18]: 65; Blackgrass plant response rating [10, 19]: 65; Morningglory plant response rating ([11]; Postemergence, 31 g ai/ha): 5; Plant response rating, Morningglory [11, 15]: 45; Plant response rating, Ragweed [12, 15]: 60; Plant response rating, Ragweed [12, 16]: 65
CCc1cc(C(=O)NC2CC2)nn1Cc1ccnc(C(F)(F)F)c1 [Compound 76] | 98 | 90 | 10 | 100 | 100 | 100 | 100 | 80 | 50 | 30 | 90 | 100 | 80 | 100 | 100 | 100 | 70 | 98 | 85 | 90 | Plant response rating (scale of 0 to 100 where 0 is no effect and 100 is complete control), Pigweed [1, 26]: 60; Pigweed plant response rating ([1]; postemergence, 62 g ai/ha): 60; Plant response rating (scale of 0 to 100), Barnyardgrass ([13]; Preemergence, 250 g ai/ha): 100; Barnyardgrass plant response rating [13, 17]: 95; Plant response rating, Barnyardgrass [13, 18]: 100; Barnyardgrass plant response rating [13, 19]: 100; Plant response rating (scale of 0 to 100 where 0 is no effect and 100 is complete control), Blackgrass [2, 26]: 5; Blackgrass plant response rating ([2]; postemergence, 62 g ai/ha): 5; Plant response rating, Blackgrass [2, 16]: 5; Plant response rating (scale of 0 to 100 where 0 is no effect and 100 is complete control), Morningglory [11, 26]: 75; Morningglory plant response rating ([11]; postemergence, 62 g ai/ha): 75; Plant response rating (scale of 0 to 100 where 0 is no effect and 100 is complete control), Ragweed [12, 26]: 55; Ragweed plant response rating ([12]; postemergence, 62 g ai/ha, scale 0 to 100): 75; Plant response rating, Ragweed [12, 16]: 75
